Test results: article doi:10.1101/2023.10.19.563029v1 (bioRxiv, 2023)
Where no end group is shown, it is not given here.

How the values were obtained:
[1] = In vivo disappearance of GLP-1; design: species or system male C57Bl6/JRj mice; details: 800 fmol i.v. tail vein; sitagliptin 10 mg/kg oral 30 min before; Alpco kit; n=5
[2] = In vivo disappearance of GLP-1; design: species or system male C57Bl6/JRj mice; details: 800 fmol into vena cava, n=4
[3] = estimated, after secretion; ref [2]; cited from earlier work
intact GLP-1 = assay type: in vivo, male C57Bl/6JRj mice
blood glucose = assay: Blood glucose during OGTT with in vivo enzyme inhibition; design: species or system male C57Bl/6JRj mice; details: valine pyrrolidide only, mean [95% CI], p=0.0023
[4] = in humans; background statement, no reference given; cited from earlier work

## CC[C@H](C)[C@H](NC(=O)[C@H](Cc1ccccc1)NC(=O)[C@H](CCC(=O)O)NC(=O)[C@H](CCCCN)NC(=O)[C@H](C)NC(=O)[C@H](C)NC(=O)[C@H](CCC(N)=O)NC(=O)CNC(=O)[C@H](CCC(=O)O)NC(=O)[C@H](CC(C)C)NC(=O)[C@H](Cc1ccc(O)cc1)NC(=O)[C@H](CO)NC(=O)[C@H](CO)NC(=O)[C@@H](NC(=O)[C@H](CC(=O)O)NC(=O)[C@H](CO)NC(=O)[C@@H](NC(=O)[C@H](Cc1ccccc1)NC(=O)[C@@H](NC(=O)CNC(=O)[C@H](CCC(=O)O)NC(=O)[C@H](C)NC(=O)[C@@H](N)Cc1c[nH]cn1)[C@@H](C)O)[C@@H](C)O)C(C)C)C(=O)N[C@@H](C)C(=O)N[C@@H](Cc1c[nH]c2ccccc12)C(=O)N[C@@H](CC(C)C)C(=O)N[C@H](C(=O)N[C@@H](CCCCN)C(=O)NCC(=O)N[C@@H](CCCNC(=N)N)C(N)=O)C(C)C [GLP-1(7–36)NH2]
[1]
  calculated half-life, sitagliptin: 1.53 min
[2]; isoflurane-sedated mice, no inhibitors
  half-life, control: 0.79 min
[2]; isoflurane-sedated mice, sitagliptin 30 min before
  half-life, sitagliptin: 1.35 min
[2]; sitagliptin 30 min before
  initial peak plasma value, sitagliptin only: ~50 pmol/L
[3]
  share of intact GLP-1 that reaches the systemic circulation: 7-8%

## CCOC(=O)[C@H](C)C[C@@H](Cc1ccc(-c2ccccc2)cc1)NC(=O)CCC(=O)O [sacubitril]
Intact GLP-1; sacubitril alone, oral 0.3 mg/kg, 30 min before OGTT, mean [95% CI], p>0.99, n=6
  difference in AUC of intact GLP-1 versus control: 4.0 pmol/L/min

## N[C@@H](CC(=O)N1CCn2c(nnc2C(F)(F)F)C1)Cc1cc(F)c(F)cc1F [sitagliptin, Sitagliptin]
Intact GLP-1; oral sitagliptin 10 mg/kg 30 min before OGTT, Alpco kit, mean ± SD, n=6, SD
  intact GLP-1 level after the OGTT, at 5 minutes: 10.9 ± 3.9 pmol/L

## CC(C)[C@H](N)C(=O)N1CCCC1 [valine pyrrolidide]
Intact GLP-1; i.p. valine pyrrolidide 15 mg/kg 30 min before OGTT, Alpco kit, mean ± SD, n=5, SD
  intact GLP-1 level after the OGTT: 5.1 ± 0.9 pmol/L
Intact GLP-1; oral valine pyrrolidide 20.6 mg/kg 30 min before OGTT, Alpco kit, mean ± SD, n=5, SD
  intact GLP-1 level after the OGTT, at 10 minutes: 9.2 ± 6.3 pmol/L
Blood glucose
  suppression in the rise of glucose at 20 minutes (difference versus control): -6.2 mmol/L

## GLP-1(9–36)NH2 (EGTFTSDVSSYLEGQAAKEFIAWLVKGR-NH2; UniProt P01275 100-127, looked up, fragment)
[4]
  plasma half-life: about 5 min
